Measurements reported in ChEMBL document CHEMBL3885861, “Open TG-GATES”.

Organism: Rattus norvegicus
Test: Open TG-GATES - Regimen: Single
Assay type: toxicity, organism-based, Sprague-Dawley
Set-up: regimen Single, gender Male, age 6 weeks
Conditions: in vivo, po, 40 mg/kg, route gavage, dose level Low; for APTT / Bas / Eos / Fbg / Hb / Ht / Lym / MCH / MCHC / MCV / Mono / Neu / PT / Plat / RBC / Ret / WBC: tissue Blood; for KIDNEY_L / KIDNEY_R / KIDNEY_TOTAL: tissue Kidney; for LIVER: tissue Liver; for A/G / ALP / ALT / AST / BUN / CRE / Ca / Cl / DBIL / GLC / IP / K / LDH / Na / PL / RALB / TBIL / TC / TG / TP / gamma-GTP: tissue Plasma

Compound: COc1ccc(Cc2nccc3cc(OC)c(OC)cc23)cc1OC [PAPAVERINE]
- TERMINAL_BW (3 h): 231 g
- APTT (3 h): 22.7 s
- Bas (3 h): 0%
- Eos (3 h): 0.8%
- Fbg (3 h): 308.6 mg/dL
- Hb (3 h): 13.3 g/dL
- Ht (3 h): 39.9%
- Lym (3 h): 77%
- MCH (3 h): 20.8 pg
- MCHC (3 h): 33.4%
- MCV (3 h): 62.1 fL
- Mono (3 h): 2.2%
- Neu (3 h): 19%
- PT (3 h): 15.5 s
- Plat (3 h): 111.6 x10_4/uL
- RBC (3 h): 643.2 x10_4/ul
- Ret (3 h): 8.1%
- WBC (3 h): 104.1 x10_2/uL
- KIDNEY_L (3 h): 0.9 g
- KIDNEY_R (3 h): 0.9 g
- KIDNEY_TOTAL (3 h): 1.9 g
- LIVER (3 h): 10.4 g
- A/G (3 h): 1.2
- ALP (3 h): 1691.2 IU/L
- ALT (3 h): 41.2 IU/L
- AST (3 h): 79 IU/L
- BUN (3 h): 13.4 mg/dL
- CRE (3 h): 0.1 mg/dL
- Ca (3 h): 11.1 mg/dL
- Cl (3 h): 107.2 meq/L
- DBIL (3 h): 0 mg/dL
- GLC (3 h): 179 mg/dL
- IP (3 h): 7.7 mg/dL
- K (3 h): 4 meq/L
- LDH (3 h): 190.4 IU/L
- Na (3 h): 141.6 meq/L
- PL (3 h): 135 mg/dL
- RALB (3 h): 3 g/dL
- TBIL (3 h): 0.006 mg/dL
- TC (3 h): 75.2 mg/dL
- TG (3 h): 65.6 mg/dL
- TP (3 h): 5.4 g/dL
- gamma-GTP (3 h): 1.6 IU/L
- TERMINAL_BW (6 h): 221.8 g
- APTT (6 h): 21.2 s
- Bas (6 h): 0%
- Eos (6 h): 0.8%
- Fbg (6 h): 322.4 mg/dL
- Hb (6 h): 13.4 g/dL
- Ht (6 h): 39.9%
- Lym (6 h): 78.2%
- MCH (6 h): 20.7 pg
- MCHC (6 h): 33.7%
- MCV (6 h): 61.5 fL
- Mono (6 h): 2.8%
- Neu (6 h): 16.8%
- PT (6 h): 15.8 s
- Plat (6 h): 129.6 x10_4/uL
- RBC (6 h): 647.8 x10_4/ul
- Ret (6 h): 7.6%
- WBC (6 h): 105.5 x10_2/uL
- KIDNEY_L (6 h): 1 g
- KIDNEY_R (6 h): 1 g
- KIDNEY_TOTAL (6 h): 1.9 g
- LIVER (6 h): 9.4 g
- A/G (6 h): 1.2
- ALP (6 h): 1422 IU/L
- ALT (6 h): 36.2 IU/L
- AST (6 h): 72.4 IU/L
- BUN (6 h): 10.6 mg/dL
- CRE (6 h): 0.1 mg/dL
- Ca (6 h): 11.1 mg/dL
- Cl (6 h): 106.8 meq/L
- DBIL (6 h): 0.002 mg/dL
- GLC (6 h): 179.8 mg/dL
- IP (6 h): 8.9 mg/dL
- K (6 h): 4.3 meq/L
- LDH (6 h): 161.2 IU/L
- Na (6 h): 140.6 meq/L
- PL (6 h): 124.6 mg/dL
- RALB (6 h): 3 g/dL
- TBIL (6 h): 0.012 mg/dL
- TC (6 h): 71.4 mg/dL
- TG (6 h): 64 mg/dL
- TP (6 h): 5.4 g/dL
- gamma-GTP (6 h): 2.2 IU/L
- TERMINAL_BW (9 h): 221.9 g
- APTT (9 h): 21 s
- Bas (9 h): 0%
- Eos (9 h): 1%
- Fbg (9 h): 325 mg/dL
- Hb (9 h): 13.5 g/dL
- Ht (9 h): 40.5%
- Lym (9 h): 78.6%
- MCH (9 h): 20.4 pg
- MCHC (9 h): 33.4%
- MCV (9 h): 61.2 fL
- Mono (9 h): 3%
- Neu (9 h): 16.6%
- PT (9 h): 15.4 s
- Plat (9 h): 114.2 x10_4/uL
- RBC (9 h): 661.8 x10_4/ul
- Ret (9 h): 7.6%
- WBC (9 h): 78.8 x10_2/uL
- KIDNEY_L (9 h): 1 g
- KIDNEY_R (9 h): 1 g
- KIDNEY_TOTAL (9 h): 1.9 g
- LIVER (9 h): 9.4 g
- A/G (9 h): 1.3
- ALP (9 h): 1463.2 IU/L
- ALT (9 h): 37 IU/L
- AST (9 h): 70.2 IU/L
- BUN (9 h): 11 mg/dL
- CRE (9 h): 0.1 mg/dL
- Ca (9 h): 11.1 mg/dL
- Cl (9 h): 107.4 meq/L
- DBIL (9 h): 0 mg/dL
- GLC (9 h): 183.6 mg/dL
- IP (9 h): 9.2 mg/dL
- K (9 h): 4 meq/L
- LDH (9 h): 150.2 IU/L
- Na (9 h): 140.6 meq/L
- PL (9 h): 133.6 mg/dL
- RALB (9 h): 3 g/dL
- TBIL (9 h): 0.02 mg/dL
- TC (9 h): 73.2 mg/dL
- TG (9 h): 69.8 mg/dL
- TP (9 h): 5.4 g/dL
- gamma-GTP (9 h): 1.6 IU/L
- TERMINAL_BW (24 h): 234.3 g
- APTT (24 h): 21.8 s
- Bas (24 h): 0%
- Eos (24 h): 0.8%
- Fbg (24 h): 309.2 mg/dL
- Hb (24 h): 13.5 g/dL
- Ht (24 h): 40.7%
- Lym (24 h): 82.6%
- MCH (24 h): 21.3 pg
- MCHC (24 h): 33.3%
- MCV (24 h): 63.9 fL
- Mono (24 h): 2.4%
- Neu (24 h): 13.2%
- PT (24 h): 16.3 s
- Plat (24 h): 114.1 x10_4/uL
- RBC (24 h): 636.4 x10_4/ul
- Ret (24 h): 7.1%
- WBC (24 h): 90.3 x10_2/uL
- KIDNEY_L (24 h): 1 g
- KIDNEY_R (24 h): 1 g
- KIDNEY_TOTAL (24 h): 2 g
- LIVER (24 h): 10.8 g
- A/G (24 h): 1.3
- ALP (24 h): 1546.4 IU/L
- ALT (24 h): 47 IU/L
- AST (24 h): 79 IU/L
- BUN (24 h): 16.2 mg/dL
- CRE (24 h): 0.1 mg/dL
- Ca (24 h): 10.6 mg/dL
- Cl (24 h): 107.4 meq/L
- DBIL (24 h): 0 mg/dL
- GLC (24 h): 195.4 mg/dL
- IP (24 h): 6.9 mg/dL
- K (24 h): 4.4 meq/L
- LDH (24 h): 207.6 IU/L
- Na (24 h): 142.8 meq/L
- PL (24 h): 126.6 mg/dL
- RALB (24 h): 3.1 g/dL
- TBIL (24 h): 0.004 mg/dL
- TC (24 h): 67.6 mg/dL
- TG (24 h): 123 mg/dL
- TP (24 h): 5.4 g/dL
- gamma-GTP (24 h): 1.2 IU/L
